# Data as given in ChEMBL document CHEMBL5512677, “Site-Specific Antimicrobial Activity of a Dual-Responsive Ciprofloxacin Prodrug” (J Med Chem, 2024).
# The source made the active and inactive calls. No cut-off for these calls is given here.
# Assays:
# Escherichia coli [1] = assay: Antibacterial activity against Escherichia coli E38 assessed as reduction in bacterial survival rate by measuring fold reduction in MIC pre-triggered with nitroreductase for 1 hr followed by bacterial infection and measured after 16 hrs by spectrometer; type: functional; conditions: time 17 hrs
# Escherichia coli [2] = assay: Antibacterial activity against Escherichia coli HB101 assessed as reduction in bacterial growth by measuring minimum inhibitory concentration incubated for 16 to 20 hrs by serial dilution method; type: functional; conditions: time 16-20 hrs
# [3] = Prodrug activation in phosphate buffer saline assessed as Escherichia coli nitroreductase mediated ciprofloxacin metabolite formation measured after 60 mins in presence of NADH by HPLC analysis; type: ADME; conditions: isolated protein, 1 h
# Escherichia coli [4] = assay: Antibacterial activity against Escherichia coli HB101 assessed as reduction in bacterial growth by measuring minimum bactericidal concentration incubated for 16 to 20 hrs by serial dilution method; type: functional; conditions: time 16-20 hrs
# Escherichia coli [5] = assay: Antibacterial activity against Escherichia coli HB101 at 0.5 to 2 times MIC measured after 30 days by broth microdilution method; type: functional, organism-based; conditions: time 30.0 day
# Staphylococcus aureus [6] = assay: Antibacterial activity against Staphylococcus aureus BB255 assessed as reduction in bacterial growth by measuring minimum bactericidal concentration incubated for 16 to 20 hrs by serial dilution method; type: functional; conditions: time 16-20 hrs
# Escherichia coli [7] = assay: Antibacterial activity against Escherichia coli E38 assessed as reduction in bacterial growth pre-triggered with nitroreductase for 1 hr followed by bacterial infection and measured after 16 hrs by spectrometer; type: functional; conditions: time 17 hrs
# [8] = Prodrug activation in phosphate buffer saline assessed as Escherichia coli nitroreductase mediated intermediate formation measured after 60 mins in presence of NADH and 10 ug/ml of NTR by HPLC analysis; conditions: isolated protein, 1 h
# [9] = Retention time of the compound by HPLC analysis; type: physicochemical
# Escherichia coli [10] = assay: Antibacterial activity against Escherichia coli E38 assessed as reduction in bacterial survival rate pre-triggered with nitroreductase for 1 hr followed by bacterial infection and measured after 16 hrs by spectrometer; type: functional, organism-based; conditions: time 17.0 hrs
# Escherichia coli [11] = assay: Antibacterial activity against Escherichia coli E38 assessed as reduction in bacterial growth by measuring minimum bactericidal concentration incubated for 16 to 20 hrs by serial dilution method; type: functional; conditions: time 16-20 hrs
# [12] = Prodrug activation in phosphate buffer saline assessed as Escherichia coli nitroreductase mediated ciprofloxacin metabolite formation measured after 5 mins in presence of NADH by HPLC analysis; type: ADME; conditions: isolated protein
# [13] = Prodrug activation in phosphate buffer saline assessed as Escherichia coli nitroreductase mediated ciprofloxacin metabolite formation measured upto 60 mins in presence of NADH by HPLC analysis; type: ADME; conditions: isolated protein, 1 h
# Escherichia coli [14] = assay: Antibacterial activity against Escherichia coli E38 infected in female Swiss Webster mouse skin abscess model assessed as log reduction in bacterial load at 20 mg/kg, sc measured after 3 days relative to control; type: functional; conditions: time 3 day
# Escherichia coli [15] = assay: Antibacterial activity against Escherichia coli E38 assessed as reduction in bacterial growth by measuring minimum inhibitory concentration incubated for 16 to 20 hrs by serial dilution method; type: functional; conditions: time 16-20 hrs
# Escherichia coli [16] = assay: Antibacterial activity against Escherichia coli E38 harboring high NTR expression and H2S assessed as reduction in bacterial survival incubated for 16 hrs by spectrometric analysis; type: functional, organism-based
# Staphylococcus aureus [17] = assay: Antibacterial activity against Staphylococcus aureus BB255 assessed as reduction in bacterial growth by measuring minimum inhibitory concentration incubated for 16 to 20 hrs by serial dilution method; type: functional; conditions: time 16-20 hrs
# Escherichia coli [18] = assay: Antibacterial activity against Escherichia coli E38 assessed as reduction in bacterial growth pre-triggered with nitroreductase and H2S for 1 hr followed by bacterial infection and measured after 16 hrs by spectrometer; type: functional; conditions: time 17 hrs
# Escherichia coli [19] = assay: Antibacterial activity against Escherichia coli E38 assessed as reduction in bacterial survival rate pre-triggered with nitroreductase and NaSH for 1 hr followed by bacterial infection and measured after 16 hrs by spectrometer; type: functional, organism-based; conditions: time 17.0 hrs
# Escherichia coli [20] = assay: Antibacterial activity against Escherichia coli E38 infected in female Swiss Webster mouse skin abscess model assessed as reduction in bacterial load at 20 mg/kg, sc measured after 3 days; type: functional, organism-based; conditions: time 3.0 day
# Escherichia coli [21] = assay: Antibacterial activity against Escherichia coli E38 assessed as reduction in bacterial growth pre-triggered with H2S for 1 hr followed by bacterial infection and measured after 16 hrs by spectrometer; type: functional; conditions: time 17 hrs
# Escherichia coli [22] = assay: Antibacterial activity against Escherichia coli E38 assessed as reduction in bacterial survival rate pre-triggered with NaSH for 1 hr followed by bacterial infection and measured after 16 hrs by spectrometer; type: functional, organism-based; conditions: time 17.0 hrs
# [23] = Prodrug activation in phosphate buffer saline assessed as Escherichia coli nitroreductase mediated ciprofloxacin metabolite formation by measuring retention time measured after 180 mins in presence of NADH by HPLC analysis; type: ADME; conditions: isolated protein, 3 h
# [24] = Prodrug activation in phosphate buffer saline assessed as Escherichia coli nitroreductase mediated ciprofloxacin metabolite formation measured after 120 mins in presence of NADH by HPLC analysis; type: ADME; conditions: isolated protein, 2 h
# Escherichia coli [25] = assay: Antibacterial activity against Escherichia coli E38 assessed as reduction in bacterial survival rate by measuring fold reduction in MIC pre-triggered with H2S for 1 hr followed by bacterial infection and measured after 16 hrs by spectrometer; type: functional; conditions: time 17 hrs
# Escherichia coli [26] = assay: Antibacterial activity against Escherichia coli HB101 at 0.5 to 2 times MIC measured after 27 days by broth microdilution method; type: functional, organism-based; conditions: time 27.0 day
SMILES,MIC (Escherichia coli [2]) [µg/mL],MBC (Escherichia coli [4]) [µg/mL],Activity (Escherichia coli [5]),MBC (Staphylococcus aureus [6]) [µg/mL],MIC (Escherichia coli [7]) [µg/mL],Retention_time [9] [min],Activity (Escherichia coli [10]),MBC (Escherichia coli [11]) [µg/mL],Drug metabolism [13],log(activity) (Escherichia coli [14]),MIC (Escherichia coli [15]) [µg/mL],Activity (Escherichia coli [16]),MIC (Staphylococcus aureus [17]) [µg/mL],MIC (Escherichia coli [18]) [µg/mL],Activity (Escherichia coli [19]),MIC (Escherichia coli [21]) [µg/mL],Activity (Escherichia coli [22]),also measured
O=C(OCc1ccc([N+](=O)[O-])cc1)c1cn(C2CC2)c2cc(N3CCNCC3)c(F)cc2c1=O,0.5,1,Active,> 128,0.063,4.7,Active,2,Metabolite_Detected,2,1,inactive,16,–,–,–,–,fold change (FC) (Escherichia coli [1]): 16; Drug metabolism [3]: Metabolite_Notdetected; Drug metabolism [8]: Metabolite_Notdetected; Drug metabolism [12]: Metabolite_Detected
C[C@H](NC(=O)c1cn(C2CC2)c2cc(N3CCNCC3)c(F)cc2c1=O)c1ccc([N+](=O)[O-])cc1,1,1,–,–,4,–,inactive,4,Metabolite_Notdetected,–,4,inactive,–,4,inactive,4,inactive,Activity (Escherichia coli [20]): Active
[N-]=[N+]=Nc1ccc(COC(=O)N2CCN(c3cc4c(cc3F)c(=O)c(C(=O)OCc3ccc([N+](=O)[O-])cc3)cn4C3CC3)CC2)cc1,32,32,Active,> 128,> 16,15.2,inactive,> 128,–,2,> 16,inactive,> 128,0.25,Active,2,–,Retention_time [23]: 2.2 min; Drug metabolism [24]: Metabolite_Detected
[N-]=[N+]=Nc1ccc(COC(=O)N2CCN(c3cc4c(cc3F)c(=O)c(C(=O)O)cn4C3CC3)CC2)cc1,0.5,0.5,–,> 128,–,12.4,–,2,–,2,1,inactive,4,–,–,0.063,Active,fold change (FC) (Escherichia coli [25]): 16; Activity (Escherichia coli [26]): inactive
O=C(O)c1cn(C2CC2)c2cc(N3CCNCC3)c(F)cc2c1=O [CIPROFLOXACIN],–,0.004,–,0.5,–,–,Active,0.015,–,–,–,–,0.25,–,–,–,–,–
